Measured values as given in ChEMBL document CHEMBL3826971 (Bioorg Med Chem Lett, 2016).

Assay: Acute toxicity in ip dosed mouse measured after 72 hrs
Format: organism-based
Details: in vivo

Structure (SMILES) | LD50 at 72 h [mg/kg]
CN(C)C(=O)Oc1cccc([N+](C)(C)C)c1.COS(=O)(=O)[O-] [NEOSTIGMINE METHYLSULFATE] | 0.51
CN(C)C(=O)Oc1ccc[n+](C)c1.[Br-] [PYRIDOSTIGMINE BROMIDE] | 3.3
